Results on 8 compounds are retold here after patent publication US4600540A, “Benzoylpropionic acid derivatives” (Taisho Pharmaceutical Co., Ltd., priority 1984, dated 1986).

Structures are written as SMILES. Bounds are passed on as bounds.

Series [1] has as its system adjuvant arthritis in Lewis rats. Kind of series: Effect on adjuvant arthritis in Lewis rats (Cellular immunostimulation). In kind it is in vivo. As to conditions: 100 mg/Kg orally once a day, 21 days after sensitization; for Tumor stimulating ratio: control = 1.00; for Edema volume: hind paw. The procedure:
Effect on adjuvant arthritis in Lewis rats
(Cellular immunostimulation)
10 Female Lewis rats, 9 weeks old, weighing 180-190 g were used per each group. Rats of each group were administered subcutaneously into the tail with a suspension of 0.6 mg of heated killed mycobaterium butyricum in liquid parafin. Each of the compounds I, suspended in a 5% gum arabic solution, was administered orally once a day to rats of different groups in an amounts of 100 mg/Kg after sensitization. As a comparative drug was used D-penicillamine in the form of an aqueous solution, which was administered orally to rats of different groups in a manner similar to the compound I.
In intervals were measured the edema volume of the hind paw of rats in the drug-treated groups and the control (the drug-untreated groups) for evaluating the tumor stimulating activity of the drug.

The nature of series [2]: Acute toxicity. As to conditions: rat, in vivo; oral, male Wister rats, observed for 7 days. The procedure: 7 male, 7 weeks old, Wister rats weighing 149-160 g were used per each for test. Rats were administered orally with a suspension of the compound I of Example 1 in a 5% gum arabic solution and observed for 7 days after administration, and the LD50 value was calculated.

Series [3] deals with adjuvant arthritis in Sprague-Dawley rats. Nature of the series: Effect on adjuvant arthritis in Sprague-Dawley rats (chronic rheumatoid arthritis model). In kind it is in vivo. As to conditions: 21 days after sensitization; for Edema volume: hind paw; for Paw edema suppression rate: vs control. The procedure: Effect on adjuvant arthritis is Sprague-Dawley rats
(chronic rheumatoid arthritis model)
10 Female Sprague-Dawley rats, 8 weeks old, weighting 160-190 g were used per each group. Rats of each group were administered subcutaneously into the tail with a suspension of 0.6 mg of heated killed mycobaterium butyricum in liquid parafin. Each of the compounds I, suspended in a 5% gum arabic solution, was administered orally once a day to rats of different groups in different amounts after sensitization.
At intervals were measured the edema volume of the hind paw of rats in the drug-treated groups and the control (drug-untreated groups) for evaluating tumor suppression activity of the compounds I.

Series [4] deals with delayed-type footpad reaction. Kind of series: Effect on delayed-type footpad reaction (Cellular immunomodulating effect). In kind it is in vivo, Balb/c mice. As to conditions: 2 hours after sensitization. The procedure: Effect on delayed-type footpad reaction
(Cellular immunomodulating effect)
8 Female Balb/c mice, 8-12 weeks oil, weighing 20-24 g were used per each group. Mice of each group were administered subcutaneously into the right footpad with 1×10^8 sheep red blood cells as antigen to be sensitized.
Each of the compounds I, suspended in a 0.5% gum arabic saline solution, was administered intraperitoneally to mice of different groups in different amounts 2 hours after the sensitization.
Four days after the sensitization, mice of each group were administered subcutaneously into the left footpad with 1×10^8 sheep red blood cells, and the increase of thickness of swelling footpad was measured for evaluating the suppression to the delayed-type footpad reaction according to the method of Lagrange et al [Journal of Experimental Medicine, vol. 139, page 528,(1974)].

In series [5] the test system is spleen lymphocytes. Nature of the series: Stimulating effect of lymphocytes transformation (3H-thymidine uptake, mitogenation). In kind it is cell-based, BDF1 mice. As to conditions: Mus musculus, Lymphocyte; for activity at 0.3 µg/mL: 0.3 μg/ml; for activity at 1 µg/mL: 1 μg/ml; for activity at 3 µg/mL: 3 μg/ml; for activity at 10 µg/mL: 10 μg/ml; for activity at 30 µg/mL: 30 μg/ml.

In series [6] the test system is spleen lymphocytes. The description is as above. In kind it is cell-based, BDF1 mice. The following applies: Mus musculus, Lymphocyte, B medium (with lipopolysaccharide 0.2 μg/ml); 0.3 μg/ml. The procedure: Stimulating effect of lymphocytes transformation
(Immunomodulative stimulating effect)
Mediums of RPMI-1640 (produced by GIBCO Co.) containing the compound I only (A medium), and containing a mitogen (lipopolysaccharide 0.2 μg/ml) and the compound I (B medium) were prepared.
2×10^5 of spleen lymphocytes of female BDF1 mice, 8-12 weeks old, weighing 20-22 g were cultured on each of the mediums at 37° C. for 48 hours under a 5% carbon dioxide in air. 0.25 μCi of ^3 H-thymidine was added to each of the mediums, and cultivation was further carried out for 22 hours. After completion of the cultivation, the lymphocytes were collected and their radio activity was measured to calculate the ^3 H-thymidine uptake into the lymphocytes for evaluating mitogenation.
The results were expressed as percent to ^3 H-thymidine uptake into lymphocytes in the control medium (not containing the compound I) and shown in Table 4.

Setting [7] is: B medium (with lipopolysaccharide 0.2 μg/ml).

As to `CC(=O)SCC(CC(=O)c1ccc(Cl)cc1)C(=O)O` (centres unmarked) [Example 3], in series [1], the Tumor stimulating ratio amounted to 1.18 and the Edema volume came out at 3.22 ± 0.09 mL.

With `CC(C)(S)[C@@H](N)C(=O)O` [D-penicillamine, reference compound], in series [1], the Tumor stimulating ratio is 1.38 and the Edema volume is 3.76 ± 0.11 mL.

Broadly, the LD50 is the dose expected to kill half of the subjects tested. A higher LD50 goes with lower toxicity. `CC(=O)SCC(CC(=O)c1ccccc1)C(=O)O` (centres unmarked) [Example 1, 2-acethylthiomethyl-3-benzoylpropionic acid] had an LD50 at 168 h in series [2] of over 1200 mg/kg. In addition, in series [3] (30 mg/kg orally once a day), the Edema volume amounted to 0.58 ± 0.18 mL and the “Paw edema suppression rate” value is 69.0%. Besides, in series [4] (10 mg/kg intraperitoneally), the “Increase of thickness of swelling footpad” value (shortened to “Increase”) is listed as 102.5 ± 10.8 × 10^-2 mm and the “Suppression rate of delayed-type footpad reaction” value is 37.7. Also, in series [4] (100 mg/kg intraperitoneally), the “Increase” value was 80.6 ± 8.0 × 10^-2 mm and the “Suppression rate of delayed-type footpad reaction” value is listed as 51.0. Further, in series [5] (A medium (compound only)), the activity at 0.3 µg/mL came out at 120%, the activity at 1 µg/mL worked out at 114%, the activity at 3 µg/mL came to 129% and the activity at 10 µg/mL is 128%. For the same compound, the activity at 30 µg/mL in series [5] (A medium (compound only)) was 149%. In series [5] (setting [7]), the activity at 1 µg/mL turned out to be 146%, the activity at 3 µg/mL was found to be 177%, the activity at 10 µg/mL stood at 217% and the activity at 30 µg/mL amounted to 241%. Further, in series [6], the activity at 0.3 µg/mL stood at 134%.

For `CC(=O)SCC(CC(=O)c1ccc(F)cc1)C(=O)O` (centres unmarked) [Example 2], in series [1], the Tumor stimulating ratio is 1.27 and the Edema volume was 3.46 ± 0.47 mL.

Turning to `CC(=O)SCC(CC(=O)c1ccc(Br)cc1)C(=O)O` (centres unmarked) [Example 4, 2-acetylthiomethyl-3-(4-bromobenzoyl)propionic acid], the Edema volume was found to be 0.64 ± 0.29 mL in series [3] (30 mg/kg orally once a day), 0.36 ± 0.14 mL in series [3] (100 mg/kg orally once a day), 0.12 ± 0.09 mL in series [3] (300 mg/kg orally once a day) and 3.27 ± 0.28 mL in series [1]. The “Paw edema suppression rate” value in series [3] (30 mg/kg orally once a day) is on record as 65.8%; in series [3] (100 mg/kg orally once a day) it was 80.7%; in series [3] (300 mg/kg orally once a day), 93.6%. In addition, the “Increase” value in series [4] (10 mg/kg intraperitoneally) is on record as 115.6 ± 4.8 × 10^-2 mm; in series [4] (100 mg/kg intraperitoneally), 89.4 ± 5.5 × 10^-2 mm. The “Suppression rate of delayed-type footpad reaction” value was 8.5 in series [4] (10 mg/kg intraperitoneally) and 29.3 in series [4] (100 mg/kg intraperitoneally). In addition, the figures for the activity at 0.3 µg/mL in series [5] (A medium (compound only)) and in series [6] were 83% and 115%, respectively. In addition, the activity at 3 µg/mL in series [5] (A medium (compound only)) is 97%; in series [5] (setting [7]), 107%. Moreover, the figures for the activity at 30 µg/mL in series [5] (A medium (compound only)) and in series [5] (setting [7]) were 117% and 131%, respectively. Further, the Tumor stimulating ratio in series [1] was determined as 1.20.

On to `CCOC(=O)C(CSC(C)=O)CC(=O)c1ccccc1` (centres unmarked) [Example 16, ethyl 2-acethylthiomethyl-3-benzoylpropionate], for which, in series [1], the Tumor stimulating ratio is listed as 1.17 and the Edema volume was 3.18 ± 0.17 mL.

Take `O=C(CC(CSC(=O)c1ccccc1)C(=O)O)c1ccccc1` (centres unmarked) [Example 13, 3-benzoyl-2-benzoylthiomethylpropionic acid]: in series [1], the Tumor stimulating ratio is listed as 1.33 and the Edema volume stood at 3.63 ± 0.11 mL.

In the case of `COc1ccc(C(=O)CC(CSC(C)=O)C(=O)O)cc1` (centres unmarked) [Example 7], in series [1], the Tumor stimulating ratio came out at 1.25 and the Edema volume came out at 3.41 ± 0.19 mL.
